Source: US7312212B2, “Aminopiperidine derivatives” (priority 2002, dated 2007)

experiment: MIC of test compounds against various organisms; type: cell-based; details: versus all of these organisms (S. epidermidis CL7, S. aureus WCUH29, S. pneumoniae 1629, S. pyogenes CN10, H. influenzae ATCC49247, E. faecalis 2, E. faecium 8, M. catarrhalis Ravisio, E. coli 7623)
Excerpt: The MIC (μg/ml) of test compounds against various organisms may be determined:
S. epidermidis CL7, S. aureus WCUH29, S. pneumoniae 1629, S. pyogenes CN10, H. influenzae ATCC49247, E. faecalis 2, E. faecium 8, M. catarrhalis Ravisio, E. coli 7623.

Structure (SMILES) | MIC
COc1ccc2nccc([C@@H](O)CN3CCC(NCc4ccc5c(n4)NC(=O)CO5)C(F)C3)c2c1 (single isomer, unassigned) [Example 10] | ≤ 2 µg/mL
COc1ccc2nccc([C@@H](O)CN3CCC(NCc4ccc5c(n4)NC(=O)CO5)C(F)C3)c2n1 (single isomer, unassigned) [Example 20] | ≤ 2 µg/mL
COc1ccc2nccc([C@@H](O)CN3CCC(NCc4ccc5c(n4)NC(=O)CS5)C(F)C3)c2c1 (single isomer, unassigned) [Example 6] | ≤ 2 µg/mL

Next, values leading:

MIC | Structure (SMILES)
≤ 2 µg/mL | COc1cc(F)c2nccc([C@@H](O)CN3CCC(NCc4ccc5c(n4)NC(=O)CO5)C(F)C3)c2c1 (single isomer, unassigned) [Example 26]
≤ 2 µg/mL | COc1ccc2nccc([C@@H](O)CN3CCC(NCc4nc5c(cc4Cl)OCC(=O)N5)C(F)C3)c2n1 (single isomer, unassigned) [Example 24]
≤ 2 µg/mL | COc1cc(F)c2nccc([C@@H](O)CN3CCC(NCc4ccc5c(n4)NC(=O)CS5)C(F)C3)c2c1 (single isomer, unassigned) [Example 27]

same assay, conditions: versus some of these organisms (panel of b704; which ones not stated)

MIC | Structure (SMILES)
≤ 16 µg/mL | COc1ccc2nccc([C@@H](O)CN3CC[C@@H](NCc4ccc5c(n4)NC(=O)CS5)C[C@H]3C(F)(F)F)c2n1 [Example 37]
